Tests used:
[1] = test system: Early Stage P388 Leukemia; experiment: Combination chemotherapy, therapeutic synergy against early stage P388 leukemia; format: in vivo, mouse
Description: (§1) Several studies were carried out to determine the potential for therapeutic synergy of trimetrexate with several clinically active anticancer agents. […] (See, for example, Vendetti, "Relevance of Transplantable Animal-Tumor Systems to the Selection of New Agents for Clinical Trial," Pharmacological Basis of Cancer Chemotherapy. Williams and Wilkins, Baltimore, 1975, and Simpson Herren, et al., "Evaluation of In Vivo Tumor Models for Predicting Clinical Activity for Anticancer Drugs," Proc. Am. Assoc. Cancer Res., 26: 330 (1985).
(§2) Differences in cell kill of greater than ten-fold (one log) were considered indicative of therapeutic synergy.
(§3) CD2F1 mice were quarantined for at least two weeks prior to allocation to test groups. P388 leukemia was passaged in DBA2 mice according to standard protocols of the National Cancer Institute. On Day 0 of a given test, all mice in the test were randomized, injected intraperitoneally with suitably diluted ascites fluid from P388 tumor-bearing donor mice and rerandomized to test cages.
The initial inoculum for all but titration groups was 10^6 cells as determined by hemocytometer count. Each experiment contained an internal control and tumor titration which enabled the determination of the tumor doubling time and estimates of the log cell kill and number of tumor cells surviving treatment.
Drug treatment was begun either on Day 1 or on Day 4 depending upon the relative activity of the agents being tested.
All of the drugs were injected within one hour of dissolution, with the exception of trimetrexate which was made up fresh twice daily. All mice were treated on the basis of average cage-group weight.
In drug combination regimens, trimetrexate was given approximately 30 minutes before the other therapeutic agents when the route of administration of the other agent was ip. […]
(§4) Group average weights were determined for all groups on Days 1, 5, and 9 for "early stage" P388 tests and on Days 4, 8, and 12 for "advanced stage" P388 tests. Animals were monitored for life span. […]

[2] = test system: Advanced Stage P388 Leukemia; format: in vivo, mouse; conditions: Test 2
Description: as §1, §2, §3
The initial inoculum for all but titration groups was 10^6 cells as determined by hemocytometer count. […]
as §4

[3] = test system: Miscell. tumors; experiment: Human tumor cloning system, miscellaneous tumors; format: cell-based; conditions: methotrexate 0.3 μg/ml, one hour; 10 specimens
Excerpt: (§5) The activity of trimetrexate was compared with that of methotrexate in tests with a human tumor cloning system (Latham, et al., Proc. Am. Assoc. Cancer Res., 24: 278 (1983)). The data from these tests appear in Table III were the activities are expressed as the numbers of tumors with 50% or greater reduction in tumor colony forming units after one hour exposure to the drug.

[4] = test system: Colon tumor; experiment: Human tumor cloning system, colon tumors; format: cell-based; conditions: methotrexate 0.3 μg/ml, one hour; 9 specimens
Excerpt: as §5

[5] = test system: L1210 cells; experiment: Inhibition of L1210 cell growth in vitro; format: cell-based, murine; conditions: Mus musculus, L1210, 48 h, read-out: ED50 for L1210 Cells
Description: Two leukemia cell lines (L1210 and L5178Y) and two solid tumor cell lines (Sarcoma 180 and Walker 256) were used in these studies.
(§6) Logarithmically growing L1210 cells (approximately 3×10^5 cells/ml) were diluted with Fischer's medium (containing 10% horse serum) to an approximate concentration of 5×10^4 cells/ml. Cells were planted in duplicate into 15 ml culture tubes containing either no drug or various amounts of drug, and incubated for 48 hours at 37° C. before being counted.
*ED50 = the concentration of drug required to reduce the cell count
to 50%, determined by plotting the cell count versus drug concentration.

[6] = test system: human tumor cultures; experiment: Human tumor cloning system, all tumors; format: cell-based
Excerpt: as §5

[7] = test system: B-Cell 8392; experiment: Inhibition of B-Cell 8392 growth in vitro; format: cell-based, human; conditions: Homo sapiens, B-cell, 48 h, read-out: ED50
Description: as §6
(§7) Trimetrexate was also evaluated in a similar manner side-by-side with methotrexate for its effect on the growth of three additional murine cell lines (L5178Y, Sarcoma-180, and Walkler-256) and three human cell lines (acute myelogenous leukemia K-562, T-cell 8402, and B-cell 8392), propagated in vitro.

[8] = test system: Ovarian tumor; experiment: Human tumor cloning system, ovarian tumors; format: cell-based; conditions: methotrexate 0.3 μg/ml, one hour; 6 specimens
Excerpt: as §5

[9] = test system: Lung tumor; experiment: Human tumor cloning system, lung tumors; format: cell-based; conditions: methotrexate 0.3 μg/ml, one hour; 8 specimens
Excerpt: as §5

[10] = test system: AML K-562; experiment: Inhibition of AML K-562 cell growth in vitro; format: cell-based, human; conditions: Homo sapiens, K562, 48 h, read-out: ED50
Description: as §6, §7

[11] = test system: Renal tumor; experiment: Human tumor cloning system, renal tumors; format: cell-based; conditions: methotrexate 0.3 μg/ml, one hour; 6 specimens
Excerpt: as §5

[12] = test system: T-Cell 8402; experiment: Inhibition of T-Cell 8402 growth in vitro; format: cell-based, human; conditions: Homo sapiens, T-cell, 48 h, read-out: ED50
Description: as §6, §7

[13] = test system: Melanoma; experiment: Human tumor cloning system, melanoma; format: cell-based; conditions: methotrexate 0.3 μg/ml, one hour; 5 specimens
Excerpt: as §5

[14] = test system: Breast tumor; experiment: Human tumor cloning system, breast tumors; format: cell-based; conditions: methotrexate 0.3 μg/ml, one hour; 10 specimens
Excerpt: as §5

`COc1cccc2c1C(=O)c1c(O)c3c(c(O)c1C2=O)C[C@@](O)(C(=O)CO)C[C@@H]3O[C@H]1C[C@H](N)[C@H](O)[C@H](C)O1` [Doxorubicin, (8S,10S)-10-[(3-Amino-2,3,6-trideoxy-α-L-lyxo-hexopyranosyl)oxy]-8-glycoloyl-7,8,9,10-tetrahydro-6,8,11-trihydroxy-1-methoxy-5,12-naphthacenedione] was tested. Which “single agent activity” value ([1]; Test 1) did it give?
Its value is “somewhat less active than expected”.

For `CC[C@]1(O)C[C@H]2CN(CCc3c([nH]c4ccccc34)[C@@](C(=O)OC)(c3cc4c(cc3OC)N(C=O)[C@H]3[C@@](O)(C(=O)OC)[C@H](OC(C)=O)[C@]5(CC)C=CCN6CC[C@]43[C@@H]65)C2)C1` [Vincristine, 22-Oxo-vincaleukoblastine], which “single agent activity” value ([1]; Test 2) is on record?
Its value is “the more active of the single agents”.

`N.N.[Cl][Pt][Cl]` [Cisplatin, cis-Diamminedichloroplatinum (II)] was tested. Which “single agent activity” value [2] did it give?
The value was “considerably less active as a single agent”.

Which results are given for `CN(Cc1cnc2nc(N)nc(N)c2n1)c1ccc(C(=O)N[C@@H](CCC(=O)O)C(=O)O)cc1` [Methotrexate, N-[4-[[(2,4-diamino-6-pteridinyl)methyl]methylamino]benzoyl]-L-glutamic acid, reference compound]?
Number of Tumors with 50% or Greater Decrease in Tumor Colony Forming Units [3]: 1; Number of Tumors with 50% or Greater Decrease in Tumor Colony Forming Units [4]: 2; IC50 [5]: 8 nM; human tumor cultures sensitive to methotrexate and resistant to trimetrexate ([6]; 4/54): 7%; Number of Tumors with 50% or Greater Decrease in Tumor Colony Forming Units ([6]; Totals, methotrexate 0.3 μg/ml, one hour, 54 specimens): 7; IC50 [7]: 25 nM; Number of Tumors with 50% or Greater Decrease in Tumor Colony Forming Units [8]: 0; Number of Tumors with 50% or Greater Decrease in Tumor Colony Forming Units [9]: 1; IC50 [10]: 50 nM; Number of Tumors with 50% or Greater Decrease in Tumor Colony Forming Units [11]: 1; IC50 [12]: 25 nM; Number of Tumors with 50% or Greater Decrease in Tumor Colony Forming Units [13]: 1; Number of Tumors with 50% or Greater Decrease in Tumor Colony Forming Units [14]: 1
